The source of these data is PMC6128917, “Implications for the impairment of the rapid channel closing of Proteomonas sulcata anion channelrhodopsin 1 at high Cl^− concentrations” (Scientific Reports, 2018).

This test deals with T1, PsuACR1 (PsACR1).
T1 construct: 291 residues plus C-terminal His8 kept (299 residues in total)
The test is described as follows: UV-visible absorption titration, λmax red-shift fitted with Hill equation (n = […] fixed). Format: binding, Proteomonas sulcata. The conditions noted are these: 10 mM MOPS pH 7.0, 25 °C; ionic strength kept at 1,000 mM with Na2SO4; initial (unphotolysed) state.

As to `Cl` [Cl^−], the Kd was determined as 5.5 ± 1.6 mM.

One may read the Kd as the equilibrium constant for the complex coming apart.
